Laboratory results as given in patent US20130317037A1, “METHOD OF ADMINISTRATION AND TREATMENT” (GlaxoSmithKline Intellectual Property Development Limited, priority 2010, published 2013).
Read-outs that look alike come from different tables or passages of the source.

Assays:
DU4475 = assay: Panel A proliferation assay (CellTiter-Glo); HER2 2 copies, KRAS WT, PIK3CA WT; format: cell-based, human; settings: for IC50: Homo sapiens, DU-4475
Experimental: (§1) A total of 15 breast cancer cell lines were used in this study. […] Cells of each line were seeded into a 384-well microtiter plate at two cell densities. Low density ranges were 300-1800 cells/well, and a high density was 600 to 3600 cells/well). The plating density was determined by the rate of proliferation of the cell line in the absence of any inhibitor and varied amongst cell lines. High plating densities were double that of low density. Each cell density was plated in triplicate. […] In addition, there were 24 wells of dimethyl sulfoxide (DMSO)-treated controls at each density. After seeding, the cells were incubated at 37° C. in 5% CO2 for 24 hours. […] After a 72 h incubation, an equal volume of the CellTiter-Glo (CellTiter-Glo Luminescent Cell Viability Assay, Promega, Madison, Wis.) to that of the cell culture medium was added into each well of the plate. After the contents were mixed to induce cell lysis and stabilization, cell luminescence was recorded using a SpectraMax M5^e (Molecular Devices, Sunnyvale, Calif., USA)
(§2) Specifically, the midpoint of the growth window (the gIC50) falls half way between the number of cells at the time of compound addition (T=0) and the growth of control cells treated with DMSO. The gIC50 value serves as a metric for measuring the inhibition of proliferation in cancer cells. The curves for each seeding density for each cell line were manually inspected for both data quality and appropriateness of curve fitting. Where the starting data were poor the curve and subsequent gIC50s were excluded from further analysis. Cell line seedings were considered of poor quality when the r^2 value of the fitted curve was <0.75. Finally, where data quality permits, the Ymin values (defined as the maximum growth inhibition relative to the cell density at Time-zero) were calculated as a measure of cytotoxicity where data were of reasonable quality.

MDA-MB-468 = assay: as above; format: cell-based, human; settings: for IC50: Homo sapiens
Experimental: as §1, §2

NCI/ADR-RES = assay: as above; format: cell-based, human; settings: for IC50: Homo sapiens
Experimental: as §1, §2

BT549 = assay: cells; format: cell-based
Method in brief: (§3)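 Seed cells on day −1 so controls remain in log growth; add compound on day 0 as 8 serial 1:5 dilutions; process a time-0 plate for baseline. After three days, derive GI50, TGI and LC50 from Ti, Tz and control readings.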

HCC1143 = assay: cells; format: cell-based
Method in brief: as §3

HCC1428 = assay: cells; format: cell-based
Method in brief: as §3

LY2 = assay: cells; format: cell-based
Method in brief: as §3

MDAMB361 = assay: cells; format: cell-based
Method in brief: as §3

SUM149PT = assay: cells; format: cell-based
Method in brief: as §3

SUM225CWN = assay: cells; format: cell-based
Method in brief: as §3

[1] = Homo sapiens, 50% net loss of cells vs time 0, read-out: LC50 (the source's name)
[2] = Homo sapiens, 72 h, three-day drug treatment, read-out: gIC50

For COc1ncc(-c2ccc3nccc(-c4ccnnc4)c3c2)cc1NS(=O)(=O)c1ccc(F)cc1F [Compound B, 2,4-difluoro-N-{2-(methyloxy)-5-[4-(4-pyridazinyl)-6-quinolinyl]-3-pyridinyl}benzenesulfonamide], the “High Density Y-Min” value (DU4475; DU4475, high density, % of cells at T = 0) was −8.4%, the “Low Density Y-Min” value (DU4475; DU4475, low density, % of cells at T = 0) was 1.2% and the IC50 (DU4475; DU4475, high seeding density, 72 h, read-out: High Density gIC50) was 20.6 nM. It also gave an IC50 (DU4475; DU4475, low seeding density, 72 h, read-out: Low Density gIC50) of 3.6 nM, an IC50 (DU4475; DU4475, mean of low and high density, read-out: Mean gIC50) of 12.1 nM and an IC50 (MDA-MB-468; MDA-MB-468, high seeding density, 72 h, read-out: High Density gIC50) of 32.1 nM. For the same compound, the IC50 (MDA-MB-468; MDA-MB-468, low seeding density, 72 h, read-out: Low Density gIC50) was 37.2 nM, the IC50 (MDA-MB-468; MDA-MB-468, mean of low and high density, read-out: Mean gIC50) was 34.9 nM and the “High Density Y-Min” value (MDA-MB-468; MDA-MB-468, high density, % of cells at T = 0) was 35.5%. The “Low Density Y-Min” value (MDA-MB-468; MDA-MB-468, low density, % of cells at T = 0) was 27.9%, the IC50 (NCI/ADR-RES; high seeding density, 72 h, read-out: High Density gIC50) was 25.4 nM and the IC50 (NCI/ADR-RES; low seeding density, 72 h, read-out: Low Density gIC50) was 51.6 nM. For the same compound, the IC50 (NCI/ADR-RES; mean of low and high density, read-out: Mean gIC50) was 38.5 nM, the “High Density Y-Min” value (NCI/ADR-RES; high density, % of cells at T = 0) was 98.9% and the “Low Density Y-Min” value (NCI/ADR-RES; low density, % of cells at T = 0) was 518.6%. The TGI (BT549; BT549, total growth inhibition) was greater than 33000.0 nM, the IC50 (BT549; Homo sapiens, BT-549, 72 h, BT549, three-day drug treatment, read-out: gIC50) was 42.7 nM and the CC50 (BT549; Homo sapiens, BT-549, BT549, 50% net loss of cells vs time 0, read-out: LC50 (the source's name)) was greater than 33000 nM. For the same compound, the TGI (HCC1143; HCC1143, total growth inhibition) was 344.0 nM, the IC50 (HCC1143; Homo sapiens, 72 h, HCC1143, three-day drug treatment, read-out: gIC50) was 34 nM and the CC50 (HCC1143; Homo sapiens, HCC1143, 50% net loss of cells vs time 0, read-out: LC50 (the source's name)) was 19500 nM. For the same compound, the TGI (HCC1428; HCC1428, total growth inhibition) was 158.5 nM, the IC50 (HCC1428; Homo sapiens, 72 h, HCC1428, three-day drug treatment, read-out: gIC50) was 16.2 nM and the CC50 (HCC1428; Homo sapiens, HCC1428, 50% net loss of cells vs time 0, read-out: LC50 (the source's name)) was 5250 nM. It also gave an IC50 (LY2; Homo sapiens, 72 h, LY2, three-day drug treatment, read-out: gIC50) of 11 nM, a TGI (LY2; LY2, total growth inhibition) of 30.2 nM and an IC50 (MDAMB361; Homo sapiens, MDA-MB-361, 72 h, MDAMB361, three-day drug treatment, read-out: gIC50) of 1.7 nM. The CC50 (MDAMB361; Homo sapiens, MDA-MB-361, MDAMB361, 50% net loss of cells vs time 0, read-out: LC50 (the source's name)) was 26.9 nM, the TGI (MDAMB361; MDAMB361, total growth inhibition) was 4.9 nM and the CC50 (SUM149PT; [1]) was 2600 nM. It also gave an IC50 (SUM149PT; [2]) of 20.6 nM, a TGI (SUM149PT; total growth inhibition) of 862.2 nM and a CC50 (SUM225CWN; [1]) of 436 nM. For the same compound, the IC50 (SUM225CWN; [2]) was 1.6 nM and the TGI (SUM225CWN; total growth inhibition) was 14.8 nM.
